These results are taken from paper PMC9681820, “A PDE10A inhibitor CPL500036 is a novel agent modulating striatal function devoid of most neuroleptic side-effects” (Frontiers in Pharmacology, 2022).

SMILES strings stand for the structures. Like-named read-outs stand apart in the source and are kept apart here.

The subject of data set [1] is Salmonella typhimurium TA1537. The experiment in a line: Ames test. As to conditions: CPL500036 5000µg/plate, n=3. (The Ames test uses bacterial strains that need an amino acid and regain growth without it when mutated back.)
For data set [2], the system named is Salmonella typhimurium TA100. The settings on record: CPL500036 5000µg/plate, n=3.
Data set [3] has as its system Salmonella typhimurium TA1535. As to conditions: CPL500036 5000µg/plate, n=3.
Data set [4] relates to Salmonella typhimurium TA98. The data set is described as follows: Ames test. The settings on record: CPL500036 5000µg/plate, n=3.
In data set [5] the test system is Escherichia coli WP2 uvrA. The data set is described as follows: Ames test. The settings on record: CPL500036 5000µg/plate, n=3.
The test system of data set [6] is cardiac 3D spheroids (cardiomyocytes and fibroblasts derived from human pluripotent cells). The experiment in a line: Cardiotoxicity in spontaneously beating cardiac 3D spheroids. The class given is cell-based. The settings on record: 3D cardiac spheroids; for AC50: Homo sapiens. As for the experimental part: The cardiotoxic effect of CPL500036 was evaluated in spontaneously beating cardiac 3D spheroids (comprising cardiomyocytes and fibroblasts derived from human pluripotent cells) by Cyprotex (Cheshire, United Kingdom). Experiments were carried out in accordance with the service-provider’s protocol. Specific parameters of cell health were assessed: number and size of spheroids, DNA structure, intracellular level of calcium ions, mitochondrial mass, membrane potential and cellular ATP. […] During the 14 days of the experiment, redosing occurred on three occasions. Spheroid hypertrophy was measured on days 3, 7, 10, and 14 using the “brightfield live cellular imaging” mode of a Cellomics ArrayScan® XTI system (Thermo Scientific, Waltham, MA, United States). On day-14, the spheroid model was analyzed using the confocal mode of Cellomics ArrayScan XTI following incorporation of appropriate fluorescent dyes. Subsequently, cellular ATP content was measured using CellTiterGlo® (Promega, Fitchburg, WI, United States). Mitomicyn C and dasatinib were used as positive controls (Supplementary Table S1).
concentration at which 50% maximum effect is observed for each cell health parameter; NR - No response observed.

On the set-up of data set [7]: method as in ref Megens A. A. H. P. et al., 2014; Suzuki et al., 2015; Arakawa et al., 2016. As to conditions: compared with marketed antipsychotics; ref Megens A. A. H. P. et al., 2014; Suzuki et al., 2015; Arakawa et al., 2016; cited from earlier work.
For a further data set, the target named is PDE10A (Homo sapiens, UniProt Q9Y233). Also noted: method as in ref Schmidt et al., 2008; Grauer et al., 2009; Harada et al., 2015. As to conditions: ref Schmidt et al., 2008; Grauer et al., 2009; Harada et al., 2015; read-out: IC50 against PDE10A; cited from earlier work.
Chain of PDE10A (Q9Y233 whole entry, species assumed): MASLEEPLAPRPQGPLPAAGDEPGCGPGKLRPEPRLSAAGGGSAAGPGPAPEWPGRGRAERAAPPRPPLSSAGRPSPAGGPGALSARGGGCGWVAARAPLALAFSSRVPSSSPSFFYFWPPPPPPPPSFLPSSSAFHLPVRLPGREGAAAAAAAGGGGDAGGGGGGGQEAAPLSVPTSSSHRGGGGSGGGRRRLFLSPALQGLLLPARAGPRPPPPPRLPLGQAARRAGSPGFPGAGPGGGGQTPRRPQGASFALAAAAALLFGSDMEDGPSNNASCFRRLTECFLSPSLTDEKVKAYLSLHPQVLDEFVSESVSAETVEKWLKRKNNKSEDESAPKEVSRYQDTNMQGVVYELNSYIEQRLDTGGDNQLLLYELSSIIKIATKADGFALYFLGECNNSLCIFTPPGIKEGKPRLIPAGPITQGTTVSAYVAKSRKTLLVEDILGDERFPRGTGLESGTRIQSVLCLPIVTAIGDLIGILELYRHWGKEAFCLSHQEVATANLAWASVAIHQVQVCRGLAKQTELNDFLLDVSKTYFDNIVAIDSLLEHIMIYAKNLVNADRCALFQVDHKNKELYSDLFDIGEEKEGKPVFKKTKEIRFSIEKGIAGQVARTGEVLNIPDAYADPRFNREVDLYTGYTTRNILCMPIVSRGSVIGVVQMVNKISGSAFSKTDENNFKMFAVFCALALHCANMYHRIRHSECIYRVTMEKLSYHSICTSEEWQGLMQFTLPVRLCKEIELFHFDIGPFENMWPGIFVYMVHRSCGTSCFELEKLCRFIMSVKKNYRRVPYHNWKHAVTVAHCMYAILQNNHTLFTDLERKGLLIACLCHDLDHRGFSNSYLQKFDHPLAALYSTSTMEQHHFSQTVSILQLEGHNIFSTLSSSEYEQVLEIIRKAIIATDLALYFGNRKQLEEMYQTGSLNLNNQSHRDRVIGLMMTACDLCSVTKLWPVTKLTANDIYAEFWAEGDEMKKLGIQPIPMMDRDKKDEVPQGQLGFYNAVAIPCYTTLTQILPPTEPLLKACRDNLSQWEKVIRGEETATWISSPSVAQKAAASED
The next data set has as its system Sprague–Dawley rats. The experiment in a line: Hyperprolactinemia: plasma prolactin before and 2 h after administration. Format: in vivo. The settings on record: 3 mg/kg, p.o., n = 4. As for the experimental part: Four male Sprague–Dawley rats (∼10 weeks; Mossakowski Medical Research Institute, Polish Academy of Sciences, Warsaw, Poland), underwent gavage with CPL500036 (3 mg/kg), haloperidol (3 mg/kg; as a positive control) or vehicle. Rats were fasted for 16 h before administration. Blood samples from the tail vein were collected immediately before and 2 h after administration. Plasma was obtained by centrifugation (1,600 × g, 20 min, 4°C) of blood samples collected on K2EDTA, and was stored at −80°C until analyses. The prolactin concentration in plasma samples was determined using the Prolactin (rat) EIA kit (Bertin Rockville, MD, United States) according to the manufacturer’s protocol. The prolactin concentration difference was assessed as follows: %∆prolactin=cprolactin, 2h−cprolactin, 0h/[…] (1)

Setting [8] is: Without metabolic activation (-S9 mix), 9AA 50µg/plate.
[9] abbreviates: Without metabolic activation (-S9 mix), SAZ 2µg/plate.
Where [10] appears, read: With metabolic activation (+S9 mix), 2AA 2µg/plate.
Where [11] appears, read: read-out: Mitochondrial mass AC50.
The mark [12] stands for this setting: read-out: Mitochondrial membrane potential AC50.
Setting [13] is: Without metabolic activation (-S9 mix), NPD 4µg/plate.

Turning to `Nc1c2ccccc2nc2ccccc12` [9AA, 9-Aminoacridine, reference compound], in data set [1] (setting [8]), the Mutation rate is recorded as 50.65 and the “Revertants Mean±SD” value is reported as 287.0±65.60.

For the molecule `[N-]=[N+]=[N-].[Na+]` [SAZ, Sodium Azide, reference compound], in [2] (setting [9]), the Mutation rate worked out at 12.76 and the “Revertants Mean±SD” value is on record as 1093.0±64.66. For the same molecule, in data set [3] (setting [9]), the Mutation rate is 74.21 and the “Revertants Mean±SD” value was determined as 940.0±91.95.

With `Nc1ccc2cc3ccccc3cc2c1` [2AA, 2-aminoanthracene, reference compound], the Mutation rate in [2] (setting [10]) amounted to 19.26; in data set [4] (setting [10]) it was 84.13; in data set [5] (setting [10]), 8.49; in [1] (setting [10]), 9.0; in data set [3] (setting [10]) it was 11.38. Moreover, the “Revertants Mean±SD” value in [2] (setting [10]) is reported as 1464.0±361.88; in data set [4] (setting [10]) it was 1682.7±156.02; in [5] (setting [10]), 203.7±3.79; in data set [1] (setting [10]) it was 78.0±7.94; in data set [3] (setting [10]), 159.3±15.57.

For `Cc1nc(Nc2ncc(C(=O)Nc3c(C)cccc3Cl)s2)cc(N2CCN(CCO)CC2)n1` [Dasatinib], the “Calcium MEC” value in data set [6] was found to be 43.0 µM. In addition, the “Cellular ATP MEC” value in [6] is on record as 0.075 µM. Moreover, the “DNA structure MEC” value in data set [6] is 2.92 µM. Moreover, the “Mitochondrial mass MEC” value in data set [6] worked out at 2.43 µM. In addition, in data set [6], the “Mitochondrial membrane potential MEC” value worked out at 16.82 µM. The “Spheroid size MEC” value in data set [6] is 0.469 µM. In addition, the AC50 in data set [6] (read-out: Calcium AC50) is greater than 50 µM; in data set [6] (read-out: Cellular ATP AC50), 0.374 µM; in data set [6] (read-out: DNA structure AC50), greater than 50 µM; in data set [6] (setting [11]), greater than 5 µM; in data set [6] (setting [12]), 26.4 µM; in data set [6] (read-out: Spheroid count AC50) it was greater than 50 µM. In data set [6] (read-out: Spheroid size AC50), the AC50 was found to be 23.4 µM.

Turning to `COc1cn(-c2ccc(-n3cccn3)cc2F)nc(-c2ccnn2-c2ccccc2)c1=O` [TAK-063], in data set [7], the cataleptic effect entry was “weaker than that for marketed antipsychotics and did not increase with increasing dose”.

Turning to `COCCc1ccc(-c2c(C)nc3c(N4CCOCC4)nccn23)cn1` [JNJ-42314,415], the cataleptic effect entry in data set [7] was “weaker than that for marketed antipsychotics and did not increase with increasing dose”.

With `CO[C@@]12[C@H](COC(N)=O)C3=C(C(=O)C(C)=C(N)C3=O)N1C[C@@H]1N[C@@H]12` [Mitomycin C], in data set [6], the “Calcium MEC” value amounted to 79.1 µM, the “Cellular ATP MEC” value was 0.243 µM, the “DNA structure MEC” value is 0.704 µM and the “Mitochondrial mass MEC” value was less than 0.04 µM. For the same molecule, in data set [6], the “Mitochondrial membrane potential MEC” value amounted to 1.89 µM, the “Spheroid count MEC” value stood at 2 µM and the “Spheroid size MEC” value was found to be 2.97 µM. In data set [6] (read-out: Calcium AC50), the AC50 is greater than 100 µM. Moreover, in [6] (read-out: Cellular ATP AC50), the AC50 stood at 0.766 µM. In addition, in [6] (read-out: DNA structure AC50), the AC50 came out at 4.41 µM. In data set [6] (setting [11]), the AC50 turned out to be 0.731 µM. The AC50 in data set [6] (setting [12]) was 3.88 µM. For the same molecule, in data set [6] (read-out: Spheroid size AC50), the half-maximal activity concentration (AC50) was greater than 100 µM.

`Cc1ncc(C)n2nc(/C=C/c3nc(N4CCCC4)cc(N4CCOCC4)n3)nc12` [PDM-042, (E )-4-(2-(2-(5,8-dimethyl-[1,2, 4]triazolo[1,5-a]pyrazin-2-yl)vinyl)-6-(pyrrolidin-1-yl)pyrimidin-4-yl)morpholine]: the cataleptic effect entry in data set [7] was “weaker than that for marketed antipsychotics and did not increase with increasing dose”.

In data set [5] (Without metabolic activation (-S9 mix), MMS 2µg/plate), `COS(C)(=O)=O` [MMS, Methyl methanesulfonate, reference compound] had a Mutation rate of 33.85.

As for `Nc1ccc([N+](=O)[O-])cc1N` [NPD, 4-Nitro-1,2-phenylenediamine, reference compound], in data set [4] (setting [13]), the Mutation rate worked out at 18.6 and the “Revertants Mean±SD” value stood at 335.0±57.51.

Consider `FC(F)(F)Cn1cc(-c2ccncc2)c(-c2ccc(OCc3ccc4ccccc4n3)cc2)n1` [TP-10], for which the IC50 at PDE10A is 0.0003 µM.

For the molecule `O=C(CCCN1CCC(O)(c2ccc(Cl)cc2)CC1)c1ccc(F)cc1` [Haloperidol], in the data set on Sprague–Dawley rats, the “prolactin release (relative change in the prolactin level before and 2 h after administration)” value is given as “induced significant prolactin release”.

Usually AC50 stands for the concentration at which the activity in the assay is half-maximal. As a reminder, the IC50 is the concentration needed to halve the response being measured.
